Values quoted from earlier work in patent US20080113973A1, “Compositions and methods involving the combination of a thromboxane A2 receptor antagonist and an inhibitor of cyclooxygenase-2” (B.M.R.A. Corporation B.V., priority 2002, published 2008).

Time of peak plasma concentrations (after oral administration): 2 to 3 h | half life (in vivo): about 17 hours
Compound: CS(=O)(=O)c1ccc(C2=C(c3ccccc3)C(=O)OC2)cc1 [Rofecoxib]
